The results in this text go back to US7166607B2, “Substituted indoles” (AstraZeneca AB, priority 2002, dated 2007).

One series addresses T1, rhCRTh2 (Homo sapiens, UniProt Q9Y5Y4).
T1 construct: expressed in transfected cells; host or cells: HEK cells (stably transfected, geneticin selection; expression induced with sodium butyrate); membrane preparation
T1 sequence (Q9Y5Y4 1-395): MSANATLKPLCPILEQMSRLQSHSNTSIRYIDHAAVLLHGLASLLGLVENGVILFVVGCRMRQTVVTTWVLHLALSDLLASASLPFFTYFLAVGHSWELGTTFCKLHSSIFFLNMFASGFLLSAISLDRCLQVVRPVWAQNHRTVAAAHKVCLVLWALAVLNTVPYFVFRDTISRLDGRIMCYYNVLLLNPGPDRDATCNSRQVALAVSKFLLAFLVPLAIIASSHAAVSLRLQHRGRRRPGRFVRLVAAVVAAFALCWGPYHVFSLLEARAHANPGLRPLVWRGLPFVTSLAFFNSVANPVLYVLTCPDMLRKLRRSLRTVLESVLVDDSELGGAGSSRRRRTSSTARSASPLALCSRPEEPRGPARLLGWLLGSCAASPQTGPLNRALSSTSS
In words: Ligand Binding Assay ([3H]PGD2 SPA, HEK cell membranes). The settings on record: [3H]PGD2 displacement, membranes of HEK cells expressing rhCRTh2/Gα16, SPA beads, 2 hours room temperature. How it is done: [^3H]PGD2 was purchased from Perkin Elmer Life Sciences with a specific activity of 100–210 Ci/mmol. All other chemicals were of analytical grade.
HEK cells expressing rhCRTh2/Gα16 were routinely maintained in DMEM containing 10% Foetal Bovine Serum (HyClone), 1 mg/ml geneticin, 2 mM L-glutamine and 1% non-essential amino acids. For the preparation of membranes, the adherent transfected HEK cells were grown to confluence in two layer tissue culture factories (Fisher, catalogue number TKT-170-070E). Maximal levels of receptor expression were induced by addition of […] sodium butyrate for the last 18 hours of culture. The adherent cells were washed once with phosphate buffered saline (PBS, 50 ml per cell factory) and detached by the addition of 50 ml per cell factory of ice-cold membrane homogenisation buffer [20 mM HEPES (pH 7.4), 0.1 mM dithiothreitol, 1 mM EDTA, 0.1 mM phenyl methyl sulphonyl fluoride and 100 μg/ml bacitracin]. […] The final pellet was re-suspended in 4 ml of membrane homogenisation buffer per cell factory used and the protein content determined. […]
All assays were performed in Corning clear bottomed, white 96-well NBS plates (Fisher). […] (The optimum coating concentrations were determined for each batch of membranes) The beads were pelleted by centrifugation (800×g for 7 minutes at 4° C.), washed once with assay buffer (50 mM HEPES pH 7.4 containing 5 mM magnesium chloride) and finally re-suspended in assay buffer at a bead concentration of 10 mg/ml.
Each assay contained 20 μl of 6.25 nM [^3H]PGD2, 20 μl membrane saturated SPA beads both in assay buffer and 10 μl of compound solution or 13,14-dihydro-15-keto prostaglandin D2 (DK-PGD2, for determination of non-specific binding, Cayman chemical company). […] The assay plate was incubated at room temperature for 2 hours and counted on a Wallac Microbeta liquid scintillation counter (1 minute per well).

In general, melting point refers to the temperature of the solid-liquid transition. One may read the IC50 as the concentration that inhibits the measured activity by half. The low end stands for higher potency, the high end for lower potency. For `Cc1c(Sc2ccc(Cl)cc2)c2c(N3CCN(C(=O)OC(C)(C)C)CC3)cccc2n1CC(=O)O` [Example 23, 3-[(4-chlorophenyl)thio]-4-[4-[(1,1-dimethylethoxy)carbonyl]-1-piperazinyl]-2-methyl-1H-indole-1-acetic acid], the melting point stood at 173 °C. The IC50 on rhCRTh2 was 891 nM.
At rhCRTh2, `COc1cccc(Sc2c(C)n(CC(=O)O)c3ccc(C)cc23)c1` [Example 29, 3-[(3-methoxyphenyl)thio]-2,5-dimethyl-1H-indole-1-acetic acid] had an IC50 of 4.47 nM.
The same measure, in the same setting: under `Cc1ccc2c(c(Sc3nc(-c4ccccc4)cs3)c(C)n2CC(=O)O)c1S(C)(=O)=O` [Example 50, 2,5-dimethyl-4-(methylsulfonyl)-3-[(4-phenyl-2-thiazolyl)thio]-1H-indole-1-acetic acid] stands 63.1 nM.
`COC(=O)c1ccc2c(c1)c(Sc1ccc(Cl)cc1)c(C)n2CC(=O)O` [Example 53, 3-[(4-chlorophenyl)thio]-5-(methoxycarbonyl)-2-methyl-1H-indole-1-acetic acid]: the melting point fell in the range of 221 to 223 °C.
